Assay type in all cases: cell-based
One assay deals with MDA-MB-231 cells. Description: MTT antiproliferative assay, MDA-MB-231. The conditions noted are these: Homo sapiens, 72 h, mean of three independent experiments, cutoff 10 µM, read-out: IC50 (Mean + SEM). On the procedure: (§1) HCT116 (Colorectal carcinoma, ATCC CCL-247) and HeLa (human cervical carcinoma, ATCC CCL-2) cells were cultured in RPMI 1640 medium with 10% FBS, and 1% penicillin–streptomycin, while MDA-MB-231 cells (triple-negative breast cancer, ATCC HTB-26) were cultured in DMEM medium with 1% penicillin–streptomycin and 10% FBS.
(§2) The evaluation of the antiproliferative effects compounds 1–7 were performed using MTT assay, as reported earlier. In short, the cells were incubated at 37 °C overnight in 5% CO2/air. After that, the compounds were added at the top row of a 96-well microtiter plate; a descendant serial dilution (1:4) of the concentration was performed followed by incubation of the cells with the compounds for 72 h. Using the Cell Titer 96 AQueous non-radioactive cell proliferation protocol, the cell viability was estimated at 490 nm on a Molecular Devices Emax microplate reader. The IC50 values of the compounds (expressed in μM) were evaluated using the program SoftMax Pro. A concentration of 10 µM was set as a cutoff value in this assay.

The test system of another assay is HeLa cells. Put plainly: MTT antiproliferative assay, HeLa. The conditions noted are these: Homo sapiens, 72 h, mean of three independent experiments, cutoff 10 µM, read-out: IC50 (Mean + SEM). Here is the method: as §1, §2
Another assay relates to HCT 116 cells. Put plainly: MTT antiproliferative assay, HCT 116. To be noted: Homo sapiens, 72 h, mean of three independent experiments, cutoff 10 µM, read-out: IC50 (Mean + SEM). On the procedure:
as §1, §2

The subject of assay [1] is normal human dermal fibroblasts (NHDF). Put plainly: MTT assay, normal human dermal fibroblasts. Here is the method:
The normal human dermal fibroblasts (NHDF) cells were cultured in fibroblast basal medium complemented with penicillin–streptomycin (1% v/v), insulin (5 µg/mL), heat-inactivated fetal bovine serum (FBS) (2% v/v), and basic fibroblast growth factor (1 ng/mL).
as §2

For assay [2], the system named is HCT116, HeLa, and MDA-MB-231 cell lines. Description: MTT assay, average over the cancerous cell lines. The conditions noted are these: Homo sapiens; average of HCT116, HeLa and MDA-MB-231; read-out: average IC50 against the cancerous cell lines. Here is the method: as §1, §2

A value given as a limit tells only on which side of the number the result lay.

From paper PMC8875508, “Cytotoxic Phenylpropanoid Derivatives and Alkaloids from the Flowers of Pancratium maritimum L” (Plants, 2022) come the findings set out here.

With `COc1ccc(CCCO[C@@H]2O[C@H](CO)[C@@H](O)[C@H](O)[C@H]2O)cc1` [Compound 3, 3-(4-methoxyphenyl)propan-1-ol-1-O-β-D-glucopyranoside], the IC50 with MDA-MB-231 cells, with HeLa cells and with HCT 116 cells was at least 10 µM throughout.

Turning to `O=C(O)/C=C/c1ccc(O)c(O)c1` [Compound 5, caffeic acid], the IC50 in the assay on MDA-MB-231 cells, in the assay with HeLa cells and in the assay with HCT 116 cells was at least 10 µM in each case.

Regarding `O=C1N[C@H]2[C@H](O)[C@H](O)[C@@H](O)[C@H](O)[C@@H]2c2cc3c(c(O)c21)OCO3` [Compound 7, pancratistatin], the IC50 came out at 0.14 ± 0.002 µM with MDA-MB-231 cells; 6.6 ± 0.034 µM in assay [1] (Homo sapiens, NHDF, MTT, 72 h, mean of three independent experiments, read-out: IC50 (Mean + SEM)); 0.058 ± 0.001 µM in the assay on HeLa cells; 0.1 ± 0.005 µM in the assay with HCT 116 cells; 0.099 µM in assay [2]. Moreover, the “selectivity towards the tested cancer cell lines versus NHDF” value in assay [1] (NHDF IC50 6.6 µM versus average IC50 0.099 µM of the cancer cell lines) is on record as 66 fold.

As to `O=c1[nH]cc(F)c(=O)[nH]1` [Compound 5-FU, 5-Fluorouracil, reference compound], the IC50 stood at 13 ± 0.3 µM in the assay with MDA-MB-231 cells, 12.3 ± 0.25 µM in the assay with HeLa cells and 4.6 ± 0.23 µM with HCT 116 cells.

On to `COC(=O)/C=C\c1ccc(O[C@@H]2O[C@H](CO)[C@@H](O)[C@H](O)[C@H]2O)cc1` [Compound 1, 3-[4-(β-D-glucopyranosyloxy)phenyl]-2-(Z)-propenoic acid methyl ester], for which the IC50 in the assay on MDA-MB-231 cells, in the assay on HeLa cells and in the assay on HCT 116 cells was at least 10 µM in each case.

For the compound `COC(=O)c1ccc(O[C@@H]2O[C@H](CO)[C@@H](O)[C@H](O)[C@H]2O)c(OC)c1` [Compound 2, 3-methoxy-4-(β-D-glucopyranosyloxy)benzoic acid methyl ester], the IC50 with MDA-MB-231 cells, with HeLa cells and in the assay with HCT 116 cells was at least 10 µM in each case.
